Data from patent publication US10253002B2, “Compounds and methods of treating infections” (Neoculi Pty Ltd., priority 2013, dated 2019).
≈ marks a conversion by molar mass, not a printed value.

Each compound was assayed on Escherichia coli (assay: Broth microdilution MIC, Example 7 (NCL812 and analogues)). Details: 24 hours; 1st and 2nd replicate rows.
Format: cell-based

Row | Structure (SMILES) | MIC (μg/ml) at 24 hours, E. coli
1 | COc1cccc(/C=N/NC(=O)N/N=C/c2cccc(OC)c2)c1 [NCL010] | >128 µg/mL
2 | O=C(NN=Cc1cccc(C(F)(F)F)c1)NN=Cc1cccc(C(F)(F)F)c1 [NCL011] | >128 µg/mL
3 | O=C(NN=Cc1ccc(C(F)(F)F)cc1)NN=Cc1ccc(C(F)(F)F)cc1 [NCL012] | >128 µg/mL
4 | O=C(N/N=C/c1ccccc1C(F)(F)F)N/N=C/c1ccccc1C(F)(F)F [NCL013] | >128 µg/mL
5 | NC(=O)N/N=C/c1ccc(Cl)cc1 [NCL014] | >128 µg/mL
6 | Cl.N=C(N)N/N=C/c1ccccc1Cl [NCL015] | >128 µg/mL
7 | Cl.N=C(N)N/N=C/c1ccccc1F [NCL016] | >128 µg/mL
8 | Cl.N=C(N)NN=Cc1cccc(F)c1 [NCL017] | >128 µg/mL
9 | Cc1ccccc1/C=N/NC(=O)N/N=C/c1ccccc1C [NCL018] | >128 µg/mL
10 | Cc1cccc(C=NNC(=O)NN=Cc2cccc(C)c2)c1 [NCL019] | >128 µg/mL
11 | Cl.N=C(N/N=C/c1ccccc1Cl)N/N=C/c1ccccc1Cl [NCL020] | >128 µg/mL
12 | Cl.N=C(NN=Cc1ccccc1F)NN=Cc1ccccc1F [NCL022] | >128 µg/mL
13 | Cl.N#Cc1ccc(C=NNC(=N)NN=Cc2ccc(C#N)cc2)cc1 [NCL024] | >128 µg/mL
14 | Cl.N#Cc1ccccc1C=NNC(=N)NN=Cc1ccccc1C#N [NCL025] | >128 µg/mL
15 | Cl.N#Cc1cccc(C=NNC(=N)NN=Cc2cccc(C#N)c2)c1 [NCL026] | >128 µg/mL
16 | COc1ccc(/C=N/NC(=N)N/N=C/c2ccc(OC)cc2)cc1.Cl [NCL027] | >128 µg/mL
17 | COc1ccccc1C=NNC(=N)NN=Cc1ccccc1OC.Cl [NCL028] | >128 µg/mL

The compounds below were run on VRE in the same assay as above. Details: MIC testing, two VRE strains.
Format: cell-based, Enterococcus spp.
Description: (§1) Minimum inhibitory concentrations (μg/ml) were determined using the broth microdilution method recommended by the Clinical and Laboratory Standards Institute (CLSI). MIC breakpoints were determined by visual assessment and then confirmed using an ELISA plate reader, measuring absorbance levels at 600 nm. Bacterial growth (turbidity) in the wells with antimicrobial was compared with the amount of growth (turbidity) in the growth-control well (containing no antimicrobial). All isolates were tested in duplicate, if there was a difference of greater than one two-fold dilution in the results, the test was repeated a third time. The purity of the isolates was closely monitored during testing by subculturing the prepared bacterial inoculum onto SBA (sheep blood agar). […] The MIC50, MIC20 and MIC range (minimum and maximum) were calculated for each of the bacterial groups.
(§2) MICs were determined against two MRSA strains, two VRE strains and one strain each of E. coli and Pseudomonas aeruginosa.

Row | Structure (SMILES) | activity against VRE among analogues
18 | O=C(NN=Cc1cccc(C(F)(F)F)c1)NN=Cc1cccc(C(F)(F)F)c1 [NCL011] | greatest activity

Same assay, conditions: isolate VRE 1; 24 hours; 1st and 2nd replicate rows

Row | Structure (SMILES) | MIC (μg/ml) at 24 hours, VRE 1
19 | COc1cccc(/C=N/NC(=O)N/N=C/c2cccc(OC)c2)c1 [NCL010] | >128 µg/mL
20 | O=C(NN=Cc1cccc(C(F)(F)F)c1)NN=Cc1cccc(C(F)(F)F)c1 [NCL011] | >128 µg/mL
21 | O=C(NN=Cc1ccc(C(F)(F)F)cc1)NN=Cc1ccc(C(F)(F)F)cc1 [NCL012] | >128 µg/mL
22 | O=C(N/N=C/c1ccccc1C(F)(F)F)N/N=C/c1ccccc1C(F)(F)F [NCL013] | >128 µg/mL
23 | NC(=O)N/N=C/c1ccc(Cl)cc1 [NCL014] | >128 µg/mL
24 | Cl.N=C(N)N/N=C/c1ccccc1Cl [NCL015] | >128 µg/mL
25 | Cl.N=C(N)N/N=C/c1ccccc1F [NCL016] | >128 µg/mL
26 | Cl.N=C(N)NN=Cc1cccc(F)c1 [NCL017] | >128 µg/mL
27 | Cc1ccccc1/C=N/NC(=O)N/N=C/c1ccccc1C [NCL018] | >128 µg/mL
28 | Cc1cccc(C=NNC(=O)NN=Cc2cccc(C)c2)c1 [NCL019] | >128 µg/mL
29 | Cl.N=C(N/N=C/c1ccccc1Cl)N/N=C/c1ccccc1Cl [NCL020] | >128 µg/mL
30 | Cl.N=C(NN=Cc1ccccc1F)NN=Cc1ccccc1F [NCL022] | >128 µg/mL
31 | Cl.N#Cc1ccc(C=NNC(=N)NN=Cc2ccc(C#N)cc2)cc1 [NCL024] | >128 µg/mL
32 | Cl.N#Cc1ccccc1C=NNC(=N)NN=Cc1ccccc1C#N [NCL025] | >128 µg/mL
33 | Cl.N#Cc1cccc(C=NNC(=N)NN=Cc2cccc(C#N)c2)c1 [NCL026] | >128 µg/mL
34 | COc1ccc(/C=N/NC(=N)N/N=C/c2ccc(OC)cc2)cc1.Cl [NCL027] | >128 µg/mL
35 | COc1ccccc1C=NNC(=N)NN=Cc1ccccc1OC.Cl [NCL028] | >128 µg/mL

Same assay, conditions: isolate VRE 2; 24 hours; 1st and 2nd replicate rows

Row | Structure (SMILES) | MIC (μg/ml) at 24 hours, VRE 2
36 | COc1cccc(/C=N/NC(=O)N/N=C/c2cccc(OC)c2)c1 [NCL010] | >128 µg/mL
37 | O=C(NN=Cc1cccc(C(F)(F)F)c1)NN=Cc1cccc(C(F)(F)F)c1 [NCL011] | 32 µg/mL (≈ 79.5 µM)
38 | O=C(NN=Cc1ccc(C(F)(F)F)cc1)NN=Cc1ccc(C(F)(F)F)cc1 [NCL012] | >128 µg/mL
39 | O=C(N/N=C/c1ccccc1C(F)(F)F)N/N=C/c1ccccc1C(F)(F)F [NCL013] | >128 µg/mL
40 | NC(=O)N/N=C/c1ccc(Cl)cc1 [NCL014] | >128 µg/mL
41 | Cl.N=C(N)N/N=C/c1ccccc1Cl [NCL015] | 128 µg/mL
42 | Cl.N=C(N)N/N=C/c1ccccc1F [NCL016] | >128 µg/mL
43 | Cl.N=C(N)NN=Cc1cccc(F)c1 [NCL017] | >128 µg/mL
44 | Cc1ccccc1/C=N/NC(=O)N/N=C/c1ccccc1C [NCL018] | >128 µg/mL
45 | Cc1cccc(C=NNC(=O)NN=Cc2cccc(C)c2)c1 [NCL019] | >128 µg/mL
46 | Cl.N=C(N/N=C/c1ccccc1Cl)N/N=C/c1ccccc1Cl [NCL020] | >128 µg/mL
47 | Cl.N=C(NN=Cc1ccccc1F)NN=Cc1ccccc1F [NCL022] | >128 µg/mL
48 | Cl.N#Cc1ccc(C=NNC(=N)NN=Cc2ccc(C#N)cc2)cc1 [NCL024] | >128 µg/mL
49 | Cl.N#Cc1ccccc1C=NNC(=N)NN=Cc1ccccc1C#N [NCL025] | >128 µg/mL
50 | Cl.N#Cc1cccc(C=NNC(=N)NN=Cc2cccc(C#N)c2)c1 [NCL026] | >128 µg/mL
51 | COc1ccc(/C=N/NC(=N)N/N=C/c2ccc(OC)cc2)cc1.Cl [NCL027] | >128 µg/mL
52 | COc1ccccc1C=NNC(=N)NN=Cc1ccccc1OC.Cl [NCL028] | 128 µg/mL

These compounds were tested on Pseudomonas aeruginosa in the same assay as above. Details: 24 hours; 1st and 2nd replicate rows.
Format: cell-based

Row | Structure (SMILES) | MIC (μg/ml) at 24 hours, P. aeruginosa
53 | COc1cccc(/C=N/NC(=O)N/N=C/c2cccc(OC)c2)c1 [NCL010] | >128 µg/mL
54 | O=C(NN=Cc1cccc(C(F)(F)F)c1)NN=Cc1cccc(C(F)(F)F)c1 [NCL011] | >128 µg/mL
55 | O=C(NN=Cc1ccc(C(F)(F)F)cc1)NN=Cc1ccc(C(F)(F)F)cc1 [NCL012] | >128 µg/mL
56 | O=C(N/N=C/c1ccccc1C(F)(F)F)N/N=C/c1ccccc1C(F)(F)F [NCL013] | >128 µg/mL
57 | NC(=O)N/N=C/c1ccc(Cl)cc1 [NCL014] | >128 µg/mL
58 | Cl.N=C(N)N/N=C/c1ccccc1Cl [NCL015] | >128 µg/mL
59 | Cl.N=C(N)N/N=C/c1ccccc1F [NCL016] | >128 µg/mL
60 | Cl.N=C(N)NN=Cc1cccc(F)c1 [NCL017] | >128 µg/mL
61 | Cc1ccccc1/C=N/NC(=O)N/N=C/c1ccccc1C [NCL018] | >128 µg/mL
62 | Cc1cccc(C=NNC(=O)NN=Cc2cccc(C)c2)c1 [NCL019] | >128 µg/mL
63 | Cl.N=C(N/N=C/c1ccccc1Cl)N/N=C/c1ccccc1Cl [NCL020] | >128 µg/mL
64 | Cl.N=C(NN=Cc1ccccc1F)NN=Cc1ccccc1F [NCL022] | >128 µg/mL
65 | Cl.N#Cc1ccc(C=NNC(=N)NN=Cc2ccc(C#N)cc2)cc1 [NCL024] | >128 µg/mL
66 | Cl.N#Cc1ccccc1C=NNC(=N)NN=Cc1ccccc1C#N [NCL025] | >128 µg/mL
67 | Cl.N#Cc1cccc(C=NNC(=N)NN=Cc2cccc(C#N)c2)c1 [NCL026] | >128 µg/mL
68 | COc1ccc(/C=N/NC(=N)N/N=C/c2ccc(OC)cc2)cc1.Cl [NCL027] | >128 µg/mL
69 | COc1ccccc1C=NNC(=N)NN=Cc1ccccc1OC.Cl [NCL028] | >128 µg/mL

These compounds were tested on MRSA in the same assay as above. Details: isolate MRSA 1; 24 hours; 1st and 2nd replicate rows.
Format: cell-based, Staphylococcus aureus
Description: as §1, §2

Row | Structure (SMILES) | MIC (μg/ml) at 24 hours, MRSA 1
70 | COc1cccc(/C=N/NC(=O)N/N=C/c2cccc(OC)c2)c1 [NCL010] | >128 µg/mL
71 | O=C(NN=Cc1cccc(C(F)(F)F)c1)NN=Cc1cccc(C(F)(F)F)c1 [NCL011] | >128 µg/mL
72 | O=C(NN=Cc1ccc(C(F)(F)F)cc1)NN=Cc1ccc(C(F)(F)F)cc1 [NCL012] | >128 µg/mL
73 | O=C(N/N=C/c1ccccc1C(F)(F)F)N/N=C/c1ccccc1C(F)(F)F [NCL013] | >128 µg/mL
74 | NC(=O)N/N=C/c1ccc(Cl)cc1 [NCL014] | >128 µg/mL
75 | Cl.N=C(N)N/N=C/c1ccccc1Cl [NCL015] | >128 µg/mL
76 | Cl.N=C(N)N/N=C/c1ccccc1F [NCL016] | >128 µg/mL
77 | Cl.N=C(N)NN=Cc1cccc(F)c1 [NCL017] | >128 µg/mL
78 | Cc1ccccc1/C=N/NC(=O)N/N=C/c1ccccc1C [NCL018] | >128 µg/mL
79 | Cc1cccc(C=NNC(=O)NN=Cc2cccc(C)c2)c1 [NCL019] | >128 µg/mL
80 | Cl.N=C(N/N=C/c1ccccc1Cl)N/N=C/c1ccccc1Cl [NCL020] | >128 µg/mL
81 | Cl.N=C(NN=Cc1ccccc1F)NN=Cc1ccccc1F [NCL022] | >128 µg/mL
82 | Cl.N#Cc1ccc(C=NNC(=N)NN=Cc2ccc(C#N)cc2)cc1 [NCL024] | >128 µg/mL
83 | Cl.N#Cc1ccccc1C=NNC(=N)NN=Cc1ccccc1C#N [NCL025] | >128 µg/mL
84 | Cl.N#Cc1cccc(C=NNC(=N)NN=Cc2cccc(C#N)c2)c1 [NCL026] | >128 µg/mL
85 | COc1ccc(/C=N/NC(=N)N/N=C/c2ccc(OC)cc2)cc1.Cl [NCL027] | >128 µg/mL
86 | COc1ccccc1C=NNC(=N)NN=Cc1ccccc1OC.Cl [NCL028] | >128 µg/mL

Same assay, conditions: isolate MRSA 2; 24 hours; 1st and 2nd replicate rows

Row | Structure (SMILES) | MIC (μg/ml) at 24 hours, MRSA 2
87 | COc1cccc(/C=N/NC(=O)N/N=C/c2cccc(OC)c2)c1 [NCL010] | >128 µg/mL
88 | O=C(NN=Cc1cccc(C(F)(F)F)c1)NN=Cc1cccc(C(F)(F)F)c1 [NCL011] | >128 µg/mL
89 | O=C(NN=Cc1ccc(C(F)(F)F)cc1)NN=Cc1ccc(C(F)(F)F)cc1 [NCL012] | >128 µg/mL
90 | O=C(N/N=C/c1ccccc1C(F)(F)F)N/N=C/c1ccccc1C(F)(F)F [NCL013] | >128 µg/mL
91 | NC(=O)N/N=C/c1ccc(Cl)cc1 [NCL014] | >128 µg/mL
92 | Cl.N=C(N)N/N=C/c1ccccc1Cl [NCL015] | >128 µg/mL
93 | Cl.N=C(N)N/N=C/c1ccccc1F [NCL016] | >128 µg/mL
94 | Cl.N=C(N)NN=Cc1cccc(F)c1 [NCL017] | >128 µg/mL
95 | Cc1ccccc1/C=N/NC(=O)N/N=C/c1ccccc1C [NCL018] | >128 µg/mL
96 | Cc1cccc(C=NNC(=O)NN=Cc2cccc(C)c2)c1 [NCL019] | >128 µg/mL
97 | Cl.N=C(N/N=C/c1ccccc1Cl)N/N=C/c1ccccc1Cl [NCL020] | >128 µg/mL
98 | Cl.N=C(NN=Cc1ccccc1F)NN=Cc1ccccc1F [NCL022] | >128 µg/mL
99 | Cl.N#Cc1ccc(C=NNC(=N)NN=Cc2ccc(C#N)cc2)cc1 [NCL024] | >128 µg/mL
100 | Cl.N#Cc1ccccc1C=NNC(=N)NN=Cc1ccccc1C#N [NCL025] | >128 µg/mL
101 | Cl.N#Cc1cccc(C=NNC(=N)NN=Cc2cccc(C#N)c2)c1 [NCL026] | >128 µg/mL
102 | COc1ccc(/C=N/NC(=N)N/N=C/c2ccc(OC)cc2)cc1.Cl [NCL027] | >128 µg/mL
103 | COc1ccccc1C=NNC(=N)NN=Cc1ccccc1OC.Cl [NCL028] | >128 µg/mL
